In series [1] the target is HRV3C (Human rhinovirus 14, UniProt P03303). Kind of series: HRV3C protease assay (duplex, SAMDI-MS). Format: biochemical, HRV. Conditions: 30 mins preincubation. Put shortly: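 Duplex format with 3CLpro; 30 min enzyme–compound preincubation, 30 min reaction with two peptide substrates, ambient temp. Stop: 0.5% formic acid, neutralized with 1% NaHCO3 (finals). Readout SAMDI-MS, product AUC over internal standard AUC; four-parameter IC50.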

The nature of series [2]: in vitro. Conditions: African green monkey, VeroE6 + CP (CC50), Vero E6-eGFP cells with CP-100356, absence of virus, MTS.
For series [3], the target named is T1, human cathepsin L (Homo sapiens, UniProt P07711).
T1 construct: purchased R&D Systems
Kind of series: cathepsin L assay. It counts as biochemical. Conditions: 10 pM human cathepsin L, Z-FR-AMC 2 μM, class symbols. Put shortly:
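Human cathepsin L at 10 pM was preincubated 30 min with compound, then reaction started with Z-FR-AMC (2 μM final). Fluorescence (355/460 nm) read every 2 min for 30 min; IC50 from four-parameter curve fit.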

The target in series [4] is 3CLpro (Severe acute respiratory syndrome coronavirus 2, UniProt P0DTD1). The series is described as follows: SARS-CoV-2 3CLpro protease assay (duplex, SAMDI-MS). Format: biochemical. More on the design: For the duplex assay, 3CLpro and HRV3C was added. Conditions: 30 mins preincubation, class symbols.
Series [5] has as its system SARS-CoV-2-GHB-03021/2020. The series is described as follows: microbe, parasite or virus in culture. It counts as cell-based. Conditions: Severe acute respiratory syndrome coronavirus 2, Vero C1008, 96 h; read-out: VeroE6 + CP (EC50).
Series [6] is described as follows: in vitro. The settings on record: human.
Series [7] has as its system human beta-coronavirus OC43. Kind of series: microbe, parasite or virus in culture. It counts as cell-based. The settings on record: Betacoronavirus 1, OC43, HeLa, 144 h, OC43 in HeLa cells, 6 days at 33° C., read-out: EC50.
Series [8] is described as follows: Cytotoxicity plates without OC43 virus (cell-titer-glo). Conditions: human; HeLa cells without OC43 virus, class symbols. Format: cell-based, human. The gist of the method: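 HeLa cells seeded overnight, then treated with serially diluted compounds in 2% FBS EMEM, uninfected, in parallel with the OC43 antiviral plates. Incubated 6 days at 33 °C; viability read by CellTiter-Glo luminescence.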

Series [9] has as its system SARS-CoV-2-GHB-03021/2020. Kind of series: SARS-CoV-2 Infection Model in Huh7 Cells. It counts as cell-based. The settings on record: Severe acute respiratory syndrome coronavirus 2, Huh-7, 96 h, SARS-CoV-2, day 4 p.i., MTS.
[10] abbreviates: HRV3C, class symbols, read-out: HRV IC50.
Where [11] appears, read: 3CLpro, read-out: SARS-Cov-2 IC50.

Like-named read-outs stand apart in the source and are kept apart here.

Turning to `COc1cc(Cl)cc2[nH]c(C(=O)N3C[C@@H]4CCC[C@@H]4[C@H]3C(=O)N[C@@H](C[C@@H]3CCNC3=O)C(=O)CO)cc12` [Compound 88, (1S,3aR,6aS)-2-(6-chloro-4-methoxy-1H-indole-2-carbonyl)-N-[(2S)-4-hydroxy-3-oxo-1-[(3S)-2-oxopyrrolidin-3-yl]butan-2-yl]-hexahydro-1H-cyclopenta[c]pyrrole-1-carboxamide], the values for the IC50 in series [1] (setting [10]), in [3] and in series [4] (setting [11]) were 2000 to 20000 nM, not below 10 µM and less than 20 nM, respectively. The CC50 in series [2] (numeric bounds) was more than 100 µM; in series [6], more than 10 µM. For the same compound, the EC50 – broadly, the concentration that produces a half-maximal response – was less than 1 µM in series [5], less than 100 nM in series [7] (class symbols) and less than 1 µM in [9] (class symbols). In series [8], the CC50 at 6 days is more than 10 µM.
As to `COc1ccc(Cl)c2[nH]c(C(=O)N3C[C@@H]4CCC[C@@H]4[C@H]3C(=O)N[C@@H](C[C@@H]3CCNC3=O)C(=O)CO)cc12` [Compound 89, (1S,3aR,6aS)-2-(7-chloro-4-methoxy-1H-indole-2-carbonyl)-N-[(2S)-4-hydroxy-3-oxo-1-[(3S)-2-oxopyrrolidin-3-yl]butan-2-yl]-hexahydro-1H-cyclopenta[c]pyrrole-1-carboxamide], the IC50 (usually the concentration needed to halve the response being measured) is more than 10000 nM in series [1] (HRV IC50, HRV3C, bound); not below 10 µM in series [3]; less than 20 nM in series [4] (SARS-Cov-2 IC50, 3CLpro). Moreover, the figures for the CC50 in series [2] (numeric bounds) and in series [6] were more than 100 µM and more than 50 µM, respectively. The values for the EC50 in series [5], in series [7] (class symbols) and in series [9] (class symbols) were less than 1 µM, 100 to 1000 nM and less than 1 µM, respectively. In addition, the CC50 at 6 days in series [8] was more than 10 µM.
In the case of `O=C1NCC[C@H]1C[C@H](NC(=O)[C@@H]1[C@H]2CCC[C@H]2CN1C(=O)c1cc2c(Cl)cc(F)cc2[nH]1)C(=O)CO` [Compound 90, (1S,3aR,6aS)-2-(4-chloro-6-fluoro-1H-indole-2-carbonyl)-N-[(2S)-4-hydroxy-3-oxo-1-[(3S)-2-oxopyrrolidin-3-yl]butan-2-yl]-hexahydro-1H-cyclopenta[c]pyrrole-1-carboxamide], the IC50 in series [1] (setting [10]) is 2000 to 20000 nM; in series [3] it was not below 10 µM; in [4] (setting [11]), less than 20 nM. Also, the results for the CC50 in series [2] (numeric bounds) and in series [6] were more than 100 µM and more than 50 µM, respectively. In addition, the EC50 in series [5] was less than 1 µM; in [7] (class symbols) it was less than 100 nM; in [9] (class symbols), less than 1 µM. The same compound yielded a CC50 at 6 days in series [8] of more than 10 µM.
Turning to `O=C1NCC[C@H]1C[C@H](NC(=O)[C@@H]1[C@H]2CCC[C@H]2CN1C(=O)c1cc2c(Cl)cc(Cl)cc2[nH]1)C(=O)CO` [Compound 91, (1S,3aR,6aS)-2-(4,6-dichloro-1H-indole-2-carbonyl)-N-[(2S)-4-hydroxy-3-oxo-1-[(3S)-2-oxopyrrolidin-3-yl]butan-2-yl]-hexahydro-1H-cyclopenta[c]pyrrole-1-carboxamide], the IC50 was 2000 to 20000 nM in series [1] (setting [10]), not below 10 µM in series [3] and less than 20 nM in [4] (setting [11]). In addition, the CC50 in series [2] (class symbols) and in series [6] was more than 10 µM in each case. Further, the EC50 in series [5] was less than 1 µM; in series [7] (class symbols), less than 100 nM; in series [9] (class symbols) it was less than 1 µM. In [8], this compound had a CC50 at 6 days of more than 10 µM.
For `COc1nccc2[nH]c(C(=O)N3C[C@@H]4CCC[C@@H]4[C@H]3C(=O)N[C@@H](C[C@@H]3CCNC3=O)C(=O)CO)cc12` [Compound 93, (1S,3aR,6aS)—N-[(2S)-4-hydroxy-3-oxo-1-[(3S)-2-oxopyrrolidin-3-yl]butan-2-yl]-2-{4-methoxy-1H-pyrrolo[3,2-c]pyridine-2-carbonyl}-hexahydro-1H-cyclopenta[c]pyrrole-1-carboxamide], the half-inhibitory concentration (IC50) is more than 10000 nM in series [1] (HRV IC50, HRV3C, bound); not below 10 µM in [3]; less than 20 nM in series [4] (setting [11]). The values for the CC50 in [2] (numeric bounds) and in series [6] were more than 50 µM and more than 100 µM, respectively. Also, the EC50 lay within 10 to 100 µM in [5], 1000 to 10000 nM in [7] (class symbols) and 10 to 100 µM in [9] (class symbols). The compound further came in with a CC50 at 6 days in [8] of more than 10 µM.
`C=CC12CN(C(=O)c3cc4c(OC)cccc4[nH]3)C(C(=O)N[C@@H](C[C@@H]3CCNC3=O)C(=O)C(=O)NC3CC3)(C1)C2` [Compound 98]: the results for the half-inhibitory concentration (IC50) in series [1] (setting [10]), in [3] and in series [4] (setting [11]) were 20 to 200 nM, not below 10 µM and 200 to 2000 nM, respectively. For the same compound, the results for the CC50 in series [2] (class symbols) and in series [6] were more than 10 µM and more than 50 µM, respectively. Besides, the concentration for a half-maximal effect (EC50) in series [5] is 10 to 100 µM; in [7] (bound), more than 10000 nM; in series [9] (numeric bounds), more than 50 µM. Moreover, the CC50 at 6 days in series [8] is more than 10 µM.
For `COCCNC(=O)C(=O)[C@H](C[C@@H]1CCNC1=O)NC(=O)[C@@H]1[C@H]2CCC[C@H]2CN1C(=O)c1cc2c(OC)cccc2[nH]1` [Compound 100, (1S,3aR,6aS)-2-(4-methoxy-1H-indole-2-carbonyl)-N—((S)-4-((2-methoxyethyl)amino)-3,4-dioxo-1-((S)-2-oxopyrrolidin-3-yl)butan-2-yl)octahydrocyclopenta[c]pyrrole-1-carboxamide], the half-maximal inhibitory concentration (IC50) is 200 to 2000 nM in series [1] (HRV IC50, HRV3C, class symbols); not below 10 µM in series [3]; 20 to 200 nM in [4] (SARS-Cov-2 IC50, 3CLpro). The CC50 in series [2] (numeric bounds) is more than 100 µM; in series [6], more than 50 µM. Besides, the EC50 in series [5] lay within 10 to 100 µM; in series [7] (class symbols) it was 1000 to 10000 nM; in series [9] (class symbols), 10 to 100 µM. Moreover, the CC50 at 6 days in series [8] was more than 10 µM.
For the compound `COc1cccc2[nH]c(C(=O)N3C[C@@H]4CCC[C@@H]4[C@H]3C(=O)N[C@@H](C[C@@H]3CCNC3=O)C(=O)C(=O)NCCOCc3ccccc3)cc12` [Compound 101], the half-inhibitory concentration (IC50) in series [1] (setting [10]) was 200 to 2000 nM; in series [3], not below 10 µM; in series [4] (setting [11]), less than 20 nM. Further, the CC50 in [2] (class symbols) is more than 10 µM; in series [6], more than 50 µM. Besides, the 50% effective concentration (EC50) in [5] lay in the range of 1 to 10 µM; in series [7] (class symbols), 100 to 1000 nM; in series [9] (class symbols), 1 to 10 µM. In series [8], this compound registered a CC50 at 6 days of more than 10 µM.
`COc1cccc2[nH]c(C(=O)N3CCc4ccccc4[C@H]3C(=O)N[C@@H](C[C@@H]3CCNC3=O)C(=O)C(=O)NC3CC3)cc12` [Compound 102]: the IC50 is more than 10000 nM in series [1] (HRV3C, bound, read-out: HRV IC50); not below 10 µM in series [3]; 200 to 2000 nM in [4] (setting [11]). For the same compound, the CC50 in series [2] (numeric bounds) and in series [6] was more than 100 µM in each case. The figures for the EC50 in series [5], in series [7] (class symbols) and in [9] (class symbols) were 1 to 10 µM, 1000 to 10000 nM and 10 to 100 µM, respectively. Also, the CC50 at 6 days in series [8] is more than 10 µM.
With `COc1cccc2[nH]c(C(=O)N3C[C@@H]4CCC[C@@H]4[C@H]3C(=O)N[C@@H](C[C@@H]3CCNC3=O)C(=O)C(=O)N[C@H]3CCOC3)cc12` [Compound 103], the IC50 in series [1] (setting [10]) was 200 to 2000 nM; in series [3], not below 10 µM; in series [4] (setting [11]) it was 20 to 200 nM. Also, the CC50 in series [2] (numeric bounds) and in series [6] was more than 100 µM throughout. Moreover, the EC50 in series [5] was 10 to 100 µM; in series [7] (bound) it was more than 10000 nM; in series [9] (class symbols), 10 to 100 µM. Besides, the CC50 at 6 days in [8] is more than 10 µM.
Regarding `COc1cccc2[nH]c(C(=O)N3C[C@@H]4CCC[C@@H]4[C@H]3C(=O)N[C@@H](C[C@@H]3CCNC3=O)C(=O)C(=O)NC3CCOCC3)cc12` [Compound 104], the IC50 in series [1] (setting [10]) was 200 to 2000 nM; in [3] it was not below 10 µM; in [4] (setting [11]), 200 to 2000 nM. Further, the CC50 in series [2] (numeric bounds) and in series [6] was more than 100 µM each time. The EC50 in [5] is 10 to 100 µM; in series [7] (bound) it was more than 10000 nM; in series [9] (class symbols), 10 to 100 µM. Moreover, the CC50 at 6 days in series [8] is more than 10 µM.
As to `COc1cccc2[nH]c(C(=O)N3C[C@@H]4CCC[C@@H]4[C@H]3C(=O)N[C@@H](C[C@@H]3CCNC3=O)C(=O)C(=O)N[C@@H]3CCOC3)cc12` [Compound 105], the IC50 is 200 to 2000 nM in [1] (setting [10]), not below 10 µM in series [3] and 20 to 200 nM in [4] (setting [11]). The CC50 in series [2] (numeric bounds) and in series [6] was more than 100 µM in each case. The concentration giving a half-maximal response (EC50) in series [5] was 10 to 100 µM; in series [7] (bound), more than 10000 nM; in series [9] (class symbols), 10 to 100 µM. The CC50 at 6 days in [8] is more than 10 µM.

The values above are taken from patent US11952365B2, “Anti-viral compounds” (Aligos Therapeutics, Inc., priority 2020, dated 2024).
